Experimental data: patent publication US6706663B2, “Herbicidal 3-heterocyclic substituted benzisothiazole and benzisoxazole compounds” (Wyeth, priority 2000, dated 2004)

Experiments:
[1] = system: IPOHE (Ipomoea hederacea); test: Preemergence herbicidal evaluation; type: in vivo, (L.) Jacq.; conditions: preemergence, rated 4-5 weeks after treatment
[2] = system: ZEAMX (Corn, Field); test: Preemergence herbicidal evaluation; type: in vivo, Zea mays, L.; conditions: preemergence, rated 4-5 weeks after treatment
[3] = system: SAGPY (Sagittaria pygmaea); test: Flooded paddy, preemergence weed control; type: in vivo, L.; conditions: rated 3-4 weeks after treatment, 0-9 rating scale
Method in brief: (§1)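 Preemergence, flooded: propagules planted at 0.5 cm depth in silt loam, water level maintained at 1.5 to 3 cm over soil, containers kept on greenhouse benches. Activity scored 0-9 by eye relative to a control plant.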

[4] = system: GLXMAW (Soybean, Williams); test: Preemergence herbicidal evaluation; type: in vivo, Glycine max, (L.) Merr. cv Williams; conditions: preemergence, rated 4-5 weeks after treatment
[5] = system: CYPIR (Cyperus iria); test: Flooded paddy, preemergence weed control; type: in vivo; conditions: rated 3-4 weeks after treatment, 0-9 rating scale
Method in brief: as §1

[6] = system: CHEAL (Chenopodium album); test: Postemergence herbicidal evaluation; type: in vivo, L.
Method in brief: (§2)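 Seedlings grown for about two weeks were sprayed postemergence and then kept under standard greenhouse care. Injury was rated visually 4–5 weeks after treatment on a 0–9 scale against untreated controls, and ratings from repeat tests were averaged.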

[7] = system: CASOB (Cassia obtusifolia); test: Postemergence herbicidal evaluation; type: in vivo, L.
Method in brief: as §2

[8] = system: AMBEL (Ambrosia artemisifolia); test: Postemergence herbicidal evaluation; type: in vivo, L.
Method in brief: as §2

[9] = system: ORYSAT (Rice, Tebonnet); test: Flooded paddy, post-transplant rice tolerance; type: in vivo, Oryza sativa, (L.) Tebonnet; conditions: flooded paddy, post-transplant rice, rated 3-4 weeks after treatment, 0-9 rating scale
Method in brief: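 Visual 0-9 rating against a control, covering stand, vigor, malformation, size, chlorosis and overall appearance. Treatment was applied after transplanting paired ten-day-old seedlings into flooded silt loam, with water kept 1.5 to 3 cm deep on greenhouse benches.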

[10] = system: GALAP (Galium aparine); test: Postemergence herbicidal evaluation; type: in vivo
Method in brief: as §2

[11] = system: ABUTH (Abutilon theophrasti); test: Postemergence herbicidal evaluation; type: in vivo, Medic.
Method in brief: as §2

Row | Structure (SMILES) | IPOHE preemergence herbicidal rating ([1]; Rate 0.0620 kg/ha) | IPOHE preemergence herbicidal rating ([1]; Rate 0.1250 kg/ha) | IPOHE preemergence herbicidal rating ([1]; Rate 0.2500 kg/ha) | ZEAMX preemergence herbicidal rating ([2]; Rate 0.0620 kg/ha) | ZEAMX preemergence herbicidal rating ([2]; Rate 0.1250 kg/ha) | ZEAMX preemergence herbicidal rating ([2]; Rate 0.2500 kg/ha) | herbicidal rating, SAGPY ([3]; rate 0.0320 kg/ha) | herbicidal rating, SAGPY ([3]; rate 0.1250 kg/ha) | GLXMAW preemergence herbicidal rating ([4]; Rate 0.0620 kg/ha) | GLXMAW preemergence herbicidal rating ([4]; Rate 0.1250 kg/ha) | GLXMAW preemergence herbicidal rating ([4]; Rate 0.2500 kg/ha) | herbicidal rating, CYPIR ([5]; rate 0.0320 kg/ha) | herbicidal rating, CYPIR ([5]; rate 0.1250 kg/ha) | Postemergence herbicidal rating, CHEAL ([6]; rate 0.0320 kg/ha) | Postemergence herbicidal rating, CHEAL ([6]; rate 0.0620 kg/ha) | Postemergence herbicidal rating, CHEAL ([6]; rate 0.1250 kg/ha) | Postemergence herbicidal rating, CASOB ([7]; rate 0.0320 kg/ha) | Postemergence herbicidal rating, CASOB ([7]; rate 0.0620 kg/ha) | Postemergence herbicidal rating, CASOB ([7]; rate 0.1250 kg/ha) | Postemergence herbicidal rating, AMBEL ([8]; rate 0.0320 kg/ha) | other results
1 | Cc1csc(-c2nsc3ccc(-n4c(=O)cc(C(F)(F)F)n(C)c4=O)cc23)n1 [Compound 7, 1-methyl-3-[3-(4-methyl-2-thiazolyl)-1,2-benzisothiazol-5-yl]-6-(trifluoromethyl)uracil] | 0.0 | 0.0 | 9.0 | 0.0 | 4.0 | 8.0 | 0.0 | 1.0 | 0.0 | 0.0 | 2.0 | 8.5 | 9.0 | 4.0 | 4.0 | 9.0 | 0.0 | 0.0 | 3.0 | 2.0 | herbicidal rating, SAGPY ([3]; rate 0.0080 kg/ha): 0.0; herbicidal rating, CYPIR ([5]; rate 0.0080 kg/ha): 7.0; Postemergence herbicidal rating, AMBEL ([8]; rate 0.0620 kg/ha): 4.0; Postemergence herbicidal rating, AMBEL ([8]; rate 0.1250 kg/ha): 9.0; herbicidal rating, ORYSAT (rice tolerance) ([9]; rate 0.0080 kg/ha): 3.0; herbicidal rating, ORYSAT (rice tolerance) ([9]; rate 0.0320 kg/ha): 2.0; herbicidal rating, ORYSAT (rice tolerance) ([9]; rate 0.1250 kg/ha): 5.0; Postemergence herbicidal rating, GALAP ([10]; rate 0.0320 kg/ha): 2.0; Postemergence herbicidal rating, GALAP ([10]; rate 0.0620 kg/ha): 9.0; Postemergence herbicidal rating, GALAP ([10]; rate 0.1250 kg/ha): 7.0; Postemergence herbicidal rating, ABUTH ([11]; rate 0.0320 kg/ha): 9.0; Postemergence herbicidal rating, ABUTH ([11]; rate 0.0620 kg/ha): 9.0; Postemergence herbicidal rating, ABUTH ([11]; rate 0.1250 kg/ha): 9.0
2 | Cn1c(C(F)(F)F)cc(=O)n(-c2ccc3snc(-c4ccccn4)c3c2)c1=O [Compound 9, 1-methyl-3-[3-(2-pyridyl)-1,2-benzisothiazol-5-yl]-6-(trifluoromethyl)uracil] | 6.3 | 8.3 | 9.0 | 6.3 | 6.7 | 7.7 | 3.0 | 9.0 | 4.0 | 8.3 | 8.7 | 7.0 | 9.0 | 9.0 | 9.0 | 9.0 | 6.5 | 8.0 | 9.0 | 9.0 | herbicidal rating, SAGPY ([3]; rate 0.0080 kg/ha): 0.0; herbicidal rating, CYPIR ([5]; rate 0.0080 kg/ha): 8.0; Postemergence herbicidal rating, AMBEL ([8]; rate 0.0620 kg/ha): 9.0; Postemergence herbicidal rating, AMBEL ([8]; rate 0.1250 kg/ha): 9.0; herbicidal rating, ORYSAT (rice tolerance) ([9]; rate 0.0080 kg/ha): 4.0; herbicidal rating, ORYSAT (rice tolerance) ([9]; rate 0.0320 kg/ha): 3.0; herbicidal rating, ORYSAT (rice tolerance) ([9]; rate 0.1250 kg/ha): 6.0; Postemergence herbicidal rating, GALAP ([10]; rate 0.0320 kg/ha): 7.0; Postemergence herbicidal rating, GALAP ([10]; rate 0.0620 kg/ha): 7.0; Postemergence herbicidal rating, GALAP ([10]; rate 0.1250 kg/ha): 5.0; Postemergence herbicidal rating, ABUTH ([11]; rate 0.0320 kg/ha): 9.0; Postemergence herbicidal rating, ABUTH ([11]; rate 0.0620 kg/ha): 9.0; Postemergence herbicidal rating, ABUTH ([11]; rate 0.1250 kg/ha): 9.0
3 | COc1ccsc1-c1nsc2ccc(-n3c(=O)cc(C(F)(F)F)n(C)c3=O)cc12 [Compound 10, 3-[3-(3-methoxy-2-thienyl)-1,2-benzisothiazol-5-yl]-1-methyl-6-(trifluoromethyl)uracil] | 0.5 | 0.5 | 2.0 | 4.0 | 6.5 | 7.0 | 0.0 | 0.0 | 0.5 | 1.0 | 2.5 | 4.0 | 9.0 | 1.0 | 1.0 | 4.0 | 0.0 | 0.0 | 1.0 | 2.0 | Postemergence herbicidal rating, AMBEL ([8]; rate 0.0620 kg/ha): 3.0; Postemergence herbicidal rating, AMBEL ([8]; rate 0.1250 kg/ha): 9.0; herbicidal rating, ORYSAT (rice tolerance) ([9]; rate 0.0320 kg/ha): 0.0; herbicidal rating, ORYSAT (rice tolerance) ([9]; rate 0.1250 kg/ha): 4.0; Postemergence herbicidal rating, GALAP ([10]; rate 0.0320 kg/ha): 1.0; Postemergence herbicidal rating, GALAP ([10]; rate 0.0620 kg/ha): 1.0; Postemergence herbicidal rating, GALAP ([10]; rate 0.1250 kg/ha): 9.0; Postemergence herbicidal rating, ABUTH ([11]; rate 0.0320 kg/ha): 8.0; Postemergence herbicidal rating, ABUTH ([11]; rate 0.0620 kg/ha): 8.0; Postemergence herbicidal rating, ABUTH ([11]; rate 0.1250 kg/ha): 9.0
